# Measured values: ChEMBL document CHEMBL5528085, “Subtle Structural Changes across the Boundary between A2AR/A2BR Dual Antagonism and A2BR Antagonism: A Novel Class of 2-Aminopyrimidine-Based Derivatives” (J Med Chem, 2024)
# Calls of active or inactive are those of the source. The calls are words filed in the database; no cut-off is given here.
# How the values were obtained:
# [1] = target: T1, Adenosine receptor A2a (Homo sapiens, UniProt P29274); assay: Antagonist activity at human adenosine 2A receptor overexpressed in HEK293 cells preincubated for 0.5 hrs followed by NECA stimulation by GloSensor cAMP assay; format: functional, cell-based
# [2] = target: T2, Adenosine receptor A2b (Homo sapiens, UniProt P29275); assay: Antagonist activity at human adenosine 2B receptor overexpressed in HEK293 cells preincubated for 0.5 hrs followed by NECA stimulation by GloSensor cAMP assay; format: functional, cell-based
# T2 sequence (P29275 whole entry): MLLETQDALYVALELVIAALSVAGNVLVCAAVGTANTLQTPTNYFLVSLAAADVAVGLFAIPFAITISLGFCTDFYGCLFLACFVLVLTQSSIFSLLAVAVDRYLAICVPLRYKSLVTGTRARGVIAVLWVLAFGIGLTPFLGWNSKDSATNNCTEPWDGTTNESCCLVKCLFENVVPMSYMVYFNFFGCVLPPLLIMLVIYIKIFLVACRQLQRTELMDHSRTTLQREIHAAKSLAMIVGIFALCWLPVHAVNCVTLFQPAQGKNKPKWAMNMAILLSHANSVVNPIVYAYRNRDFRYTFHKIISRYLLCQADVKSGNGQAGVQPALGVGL
# [3] = organism: Homo sapiens; assay: Selectivity ratio of IC50 for antagonist activity at human adenosine 2A receptor overexpressed in HEK293 cells to IC50 for antagonist activity at human adenosine 2B receptor overexpressed in HEK293 cells; format: cell-based
# [4] = target: T1, Adenosine receptor A2a; assay: Antagonist activity at human adenosine 2A receptor overexpressed in HEK293 cells preincubated for 0.5 hrs followed by NECA stimulation by Schild plot based GloSensor cAMP assay; format: functional, cell-based; conditions: read-out: pA2 (converted)
# [5] = target: T2, Adenosine receptor A2b; assay: Antagonist activity at human adenosine 2B receptor overexpressed in HEK293 cells preincubated for 0.5 hrs followed by NECA stimulation by Schild plot based GloSensor cAMP assay; format: functional, cell-based; conditions: read-out: pA2 (converted)
# [6] = target: T3, Adenosine receptor A3 (Homo sapiens, UniProt P0DMS8); assay: Antagonist activity at human Adenosine A3 receptor overexpressed in HEK293 cells preincubated for 0.5 hrs followed by NECA stimulation by GloSensor cAMP assay; format: functional, cell-based
# T3 sequence (P0DMS8 whole entry): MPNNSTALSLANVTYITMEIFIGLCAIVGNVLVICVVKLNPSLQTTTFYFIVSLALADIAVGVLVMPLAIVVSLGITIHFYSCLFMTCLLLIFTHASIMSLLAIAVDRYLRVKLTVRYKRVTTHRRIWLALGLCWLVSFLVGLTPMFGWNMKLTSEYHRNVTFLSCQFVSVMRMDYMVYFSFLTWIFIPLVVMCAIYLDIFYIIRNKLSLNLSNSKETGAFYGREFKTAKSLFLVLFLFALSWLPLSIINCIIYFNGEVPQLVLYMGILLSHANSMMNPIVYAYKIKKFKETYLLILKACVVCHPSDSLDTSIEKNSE
# [7] = Downregulation of NECA-induced TIM-3 expression in human Jurkat T cells at 0.1 to 10 uM incubated for 5 hrs in presence of PMA and ionomycin by q-PCR analysis; format: functional; conditions: dose 0.1-10 µM
# [8] = target: T4, Adenosine receptor A1 (Homo sapiens, UniProt P30542); assay: Antagonist activity at human Adenosine A1 receptor overexpressed in HEK293 cells preincubated for 0.5 hrs followed by NECA stimulation by GloSensor cAMP assay; format: functional, cell-based
# T4 sequence (P30542 whole entry): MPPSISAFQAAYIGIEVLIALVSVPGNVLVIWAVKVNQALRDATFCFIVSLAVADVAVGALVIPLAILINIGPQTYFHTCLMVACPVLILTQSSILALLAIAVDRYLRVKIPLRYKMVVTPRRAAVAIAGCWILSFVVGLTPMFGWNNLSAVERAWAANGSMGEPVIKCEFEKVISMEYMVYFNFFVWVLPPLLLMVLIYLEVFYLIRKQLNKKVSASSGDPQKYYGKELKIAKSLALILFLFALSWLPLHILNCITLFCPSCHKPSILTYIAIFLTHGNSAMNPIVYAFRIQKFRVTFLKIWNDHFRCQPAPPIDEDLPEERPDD
# [9] = target: T1, Adenosine receptor A2a; assay: (§1) Antagonist activity at human adenosine 2A receptor expressed in HEK293 cells co-expressing CRE-luciferase plasmid assessed as inhibition of NECA-stimulated luciferase expression preincubated with compound for 0.5 hrs followed by NECA stimulation and measured after 4 hrs by luciferase based CRE reporter assay; format: functional, cell-based
# [10] = test system: MC38-OVA; assay: Induction of T-cell mediated cell death in mouse MC38-OVA cells co-cultured with OT-1 CTL assessed as reversal of NECA-induced impairment in OT-I CTL mediated cell killing at 10 uM incubated for 48 hrs by calcein AM dye based fluorescence microscopic analysis; format: functional
# [11] = Downregulation of NECA-induced PD-1 expression in human Jurkat T cells at 0.1 to 10 uM incubated for 5 hrs in presence of PMA and ionomycin by q-PCR analysis; format: functional; conditions: dose 0.1-10 µM
# [12] = target: T2, Adenosine receptor A2b; assay: as §1, with “2B” for “2A”; format: functional, cell-based
# [13] = target: T1, Adenosine receptor A2a; assay: Antagonist activity at adenosine 2A receptor (unknown origin)
# [14] = target: T2, Adenosine receptor A2b; assay: Antagonist activity at adenosine 2B receptor (unknown origin); format: functional
# T1 sequence (P29274 whole entry): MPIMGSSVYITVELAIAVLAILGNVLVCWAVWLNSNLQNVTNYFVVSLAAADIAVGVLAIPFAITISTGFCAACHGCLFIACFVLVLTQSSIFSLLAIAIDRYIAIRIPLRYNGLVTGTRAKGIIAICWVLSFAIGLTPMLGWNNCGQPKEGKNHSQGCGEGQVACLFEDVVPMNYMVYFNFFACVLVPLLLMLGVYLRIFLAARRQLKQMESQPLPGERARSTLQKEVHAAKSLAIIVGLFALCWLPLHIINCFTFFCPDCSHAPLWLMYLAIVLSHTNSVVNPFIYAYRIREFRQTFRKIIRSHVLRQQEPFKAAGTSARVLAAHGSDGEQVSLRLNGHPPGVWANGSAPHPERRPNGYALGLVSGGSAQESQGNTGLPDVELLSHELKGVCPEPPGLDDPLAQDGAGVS
Structure (SMILES),IC50 [1],IC50 [2],Ratio IC50 [3],other results
Cc1ccc2c(Cn3cc(-c4cc(-c5cccc(C#N)c5C)nc(N)n4)nn3)c[nH]c2c1,324 nM,48.6 nM,6.7,–
Cc1c(C#N)cccc1-c1cc(-c2cn(Cc3c[nH]c4cccnc34)nn2)nc(N)n1,–,3.6 nM,–,–
Cc1c(C#N)cccc1-c1cc(-c2cn(Cc3csc4ccccc34)nn2)nc(N)n1,34.8 nM,131 nM,0.3,–
Cc1c(C#N)cccc1-c1cc(-c2cn(Cc3c[nH]c4cnccc34)nn2)nc(N)n1,1910 nM,11.1 nM,172,–
Cc1c(C#N)cccc1-c1cc(-c2cn(Cc3c[nH]c4ccc(OC(C)C)cc34)nn2)nc(N)n1,69.9 nM,103 nM,0.7,–
Cc1c(C#N)cccc1-c1cc(-c2cn(Cc3c[nH]c4cc(OC(C)C)ccc34)nn2)nc(N)n1,3850 nM,30.6 nM,126,–
COC(=O)c1ccc2c(Cn3cc(-c4cc(-c5cccc(C#N)c5C)nc(N)n4)nn3)c[nH]c2c1,> 100000 nM,97.7 nM,–,–
COc1ccc2[nH]cc(Cn3cc(-c4cc(-c5cccc(C#N)c5C)nc(N)n4)nn3)c2c1,–,44.7 nM,–,–
Cc1c(C#N)cccc1-c1cc(-c2cn(Cc3c[nH]c4cc(S(C)(=O)=O)ccc34)nn2)nc(N)n1,431 nM,3.4 nM,127,–
Cc1c(C#N)cccc1-c1cc(-c2cn(Cc3cn(C)c4ccccc34)nn2)nc(N)n1,> 100000 nM,> 100000 nM,–,–
Cc1c(C#N)cccc1-c1cc(-c2cn(Cc3c[nH]c4cc(C#N)ccc34)nn2)nc(N)n1,242 nM,2.6 nM,93.2,–
COC(=O)c1ccc2[nH]cc(Cn3cc(-c4cc(-c5cccc(C#N)c5C)nc(N)n4)nn3)c2c1,70.2 nM,38.2 nM,1.8,–
Cc1c(C#N)cccc1-c1cc(-c2cn(Cc3c[nH]c4ccc(Cl)cc34)nn2)nc(N)n1,244 nM,45.4 nM,5.4,–
Cc1c(C#N)cccc1-c1cc(-c2cn(Cc3c[nH]c4ccc(S(C)(=O)=O)cc34)nn2)nc(N)n1,18.3 nM,9.7 nM,1.9,–
Cc1c(C#N)cccc1-c1cc(-c2cn(Cc3cnc4ccccn34)nn2)nc(N)n1,> 100000 nM,> 100000 nM,–,–
Cc1c(C#N)cccc1-c1cc(-c2cn(Cc3c[nH]c4c(Cl)cccc34)nn2)nc(N)n1,1140 nM,1080 nM,1.1,–
Cc1c(C#N)cccc1-c1cc(-c2cn(Cc3c[nH]c4cc(Cl)c(Cl)cc34)nn2)nc(N)n1,6320 nM,209 nM,30.2,–
Cc1c(C#N)cccc1-c1cc(-c2cn(Cc3c[nH]c4ccc(C#N)cc34)nn2)nc(N)n1,11.2 nM,6.4 nM,1.8,Kb [4]: 1.62 nM; Kb [5]: 1.32 nM; IC50 [6]: > 1000 nM; Activity [7]: ~100%; IC50 [8]: > 1000 nM; IC50 [9]: 7.3 nM; Activity [10]: Active; Activity [11]: ~100%; IC50 [12]: 8.1 nM
Cc1c(C#N)cccc1-c1cc(-c2cn(Cc3c[nH]c4ccncc34)nn2)nc(N)n1,169 nM,11.6 nM,14.6,–

Structure (SMILES),IC50 [1],IC50 [2],Ratio IC50 [3],other results
Cc1c(C#N)cccc1-c1cc(-c2cn(Cc3c[nH]c4cccc(Cl)c34)nn2)nc(N)n1,172 nM,316 nM,0.5,–
Cc1c(C#N)cccc1-c1cc(-c2cn(Cc3ccc4[nH]ccc4c3)nn2)nc(N)n1,1010 nM,43.1 nM,23.5,–
Cc1c(C#N)cccc1-c1cc(-c2cn(Cc3csc4c3CCCC4)nn2)nc(N)n1,11.6 nM,101 nM,0.1,–
Cc1c(C#N)cccc1-c1cc(-c2cn(Cc3c[nH]c4ccccc34)nn2)nc(N)n1,112 nM,43.8 nM,2.6,–
Cc1c(C#N)cccc1-c1cc(-c2cn(Cc3c[nH]c4cc(Cl)ccc34)nn2)nc(N)n1,753 nM,55.8 nM,13.5,–
Cc1c(C#N)cccc1-c1cc(-c2cn(Cc3cccc4[nH]ccc34)nn2)nc(N)n1,5820 nM,> 100000 nM,–,–
Cc1c(C#N)cccc1-c1cc(-c2cn(Cc3ccc4cc[nH]c4c3)nn2)nc(N)n1,427 nM,134 nM,3.2,–
COc1ncc(C2=CCOCC2)c2sc(NC(=O)N3CC[C@@]4(CCCOC4)C3)nc12 [MUVADENANT],–,–,–,IC50 [13]: < 10 nM; IC50 [14]: < 10 nM
Cc1c(C#N)cccc1-c1cc(-c2cn(Cc3cc4ccccc4[nH]3)nn2)nc(N)n1,–,654 nM,–,–
Cc1c(C#N)cccc1-c1cc(-c2cn(Cc3cccc4cc[nH]c34)nn2)nc(N)n1,7860 nM,> 100000 nM,–,–
Cc1c(C#N)cccc1-c1cc(-c2cn(Cc3c[nH]c4cc(F)ccc34)nn2)nc(N)n1,120 nM,13.7 nM,8.8,–
Cc1c(C#N)cccc1-c1cc(-c2cn(Cc3c[nH]c4ccc(OC5CCCC5)cc34)nn2)nc(N)n1,97.4 nM,349 nM,0.3,–
Cc1c(C#N)cccc1-c1cc(-c2cn(Cc3cccc(C(C)(C)O)n3)nn2)nc(N)n1 [ETRUMADENANT],7.5 nM,31.4 nM,0.2,IC50 [8]: 87.3 nM; Ki [13]: 0.851 nM; Ki [14]: 3.16 nM
Cc1ccc2[nH]cc(Cn3cc(-c4cc(-c5cccc(C#N)c5C)nc(N)n4)nn3)c2c1,103 nM,43.4 nM,2.4,–
Cc1c(C#N)cccc1-c1cc(-c2cn(Cc3c[nH]c4ncccc34)nn2)nc(N)n1,2260 nM,215 nM,10.5,–
Cc1c(C#N)cccc1-c1cc(-c2cn(Cc3n[nH]c4ccccc34)nn2)nc(N)n1,129 nM,41.7 nM,3.1,–
Cc1c(C#N)cccc1-c1cc(-c2cn(Cc3c[nH]c4cc(OC5CCCC5)ccc34)nn2)nc(N)n1,–,71.6 nM,–,–
Cc1c(C#N)cccc1-c1cc(-c2cn(Cc3c[nH]c4ccc(F)cc34)nn2)nc(N)n1,63.3 nM,14.3 nM,4.4,–
COc1ccc2c(Cn3cc(-c4cc(-c5cccc(C#N)c5C)nc(N)n4)nn3)c[nH]c2c1,133 nM,27.6 nM,4.8,–
